Type in all cases: cell-based
For test [1], the target named is T1, rP2 × 4R C132T/C159T mutant (Rattus norvegicus, UniProt P51577, C132T/C159T).
T1 construct: expressed in transfected cells; host or cells: Xenopus laevis oocytes
T1 sequence (P51577 1-388 C132T/C159T): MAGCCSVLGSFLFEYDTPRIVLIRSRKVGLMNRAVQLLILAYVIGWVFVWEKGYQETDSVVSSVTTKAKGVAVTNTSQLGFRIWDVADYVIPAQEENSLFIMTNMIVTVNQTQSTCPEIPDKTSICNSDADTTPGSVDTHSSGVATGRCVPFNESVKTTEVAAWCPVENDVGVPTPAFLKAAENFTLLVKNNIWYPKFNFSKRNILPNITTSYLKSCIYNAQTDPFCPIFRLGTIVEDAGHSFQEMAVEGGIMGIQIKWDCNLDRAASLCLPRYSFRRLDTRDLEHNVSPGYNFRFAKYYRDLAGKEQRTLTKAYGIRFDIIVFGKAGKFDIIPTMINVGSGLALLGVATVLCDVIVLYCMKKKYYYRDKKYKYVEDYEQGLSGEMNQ
Briefly: ATP concentration–response curves, voltage clamp, C132T/C159T double mutant.

For a further test, the target named is T2, rP2 × 4R C149A mutant (Rattus norvegicus, UniProt P51577, C149A).
T2 construct: host or cells: Xenopus laevis oocytes
T2 sequence (P51577 1-388 C149A): T1 sequence (P51577 1-388 C132T/C159T) with T132C, C149A, T159C
In words: ATP concentration–response curves, voltage clamp, C149A mutant. The conditions noted are these: for EC50: ATP EC50, C149A.

The target of test [2] is T3, rP2 × 4R C132S/C159S mutant (Rattus norvegicus, UniProt P51577, C132S/C159S).
T3 construct: host or cells: Xenopus laevis oocytes
T3 sequence (P51577 1-388 C132S/C159S): T1 sequence (P51577 1-388 C132T/C159T) with T132S, T159S
Briefly: ATP concentration–response curves, voltage clamp, C132S/C159S double mutant.

Test [3] has as its target T4, rP2 × 4R C126A/C149A mutant (Rattus norvegicus, UniProt P51577, C126A/C149A).
T4 construct: host or cells: Xenopus laevis oocytes
T4 sequence (P51577 1-388 C126A/C149A): T1 sequence (P51577 1-388 C132T/C159T) with C126A, T132C, C149A, T159C
In words: ATP concentration–response curves, voltage clamp, C126A/C149A double mutant. The conditions noted are these: for EC50: ATP EC50, C126A/C149A.

In a further test the target is T5, rP2 × 4R (Rattus norvegicus, UniProt P51577).
T5 construct: host or cells: Xenopus laevis oocytes (intranuclear plasmid injection, pcDNA3)
T5 sequence (P51577 1-388): T1 sequence (P51577 1-388 C132T/C159T) with T132C, T159C
Briefly: ATP concentration–response curves, two-electrode voltage clamp in oocytes expressing wild type rP2 × 4R. (In general: In two-electrode clamp one electrode senses voltage and the other passes current.)

Another test deals with T6, rP2 × 4R C132A mutant (Rattus norvegicus, UniProt P51577, C132A).
T6 construct: expressed in transfected cells; host or cells: Xenopus laevis oocytes
T6 sequence (P51577 1-388 C132A): T1 sequence (P51577 1-388 C132T/C159T) with T132A, T159C
Briefly: ATP concentration–response curves, voltage clamp, C132A mutant. The conditions noted are these: for EC50: ATP EC50, C132A.

Each structure is given as a SMILES string. Substitutions are numbered along the chain they refer to.

Consider `Nc1ncnc2c1ncn2[C@@H]1O[C@H](COP(=O)(O)OP(=O)(O)OP(=O)(O)O)[C@@H](O)[C@H]1O` [ATP, adenosine triphosphate], for which the EC50 in test [1] (control) is 27.4 ± 13.6 µM; on rP2 × 4R C149A mutant (+10 µM Zn(II)), 22.5 ± 7.5 µM; at rP2 × 4R C149A mutant (control), 39 ± 16.7 µM; in test [2] (control), 20.5 ± 5 µM; in test [3] (+10 µM Zn(II)), 10.1 ± 4.1 µM; in test [3] (control) it was 22.9 ± 6.7 µM. The EC50 on rP2 × 4R (ATP EC50, NEM treatment + Zn(II) group, control before treatment (first ATP curve)) is 24.5 ± 9.1 µM; on rP2 × 4R (ATP EC50, NEM treatment + vehicle group, control before treatment (first ATP curve)) it was 23 ± 8.3 µM; at rP2 × 4R (ATP EC50, P2 × 4 WT, control) it was 27.5 ± 10.6 µM; at rP2 × 4R (ATP EC50, after 300 µM DTNB + 10 µM Zn(II) treatment and washout, Figure S3), 79.8 ± 64.4 µM; at rP2 × 4R (ATP EC50, after 300 µM NEM + 10 µM Zn(II) treatment, control = ATP curve after treatment), 44.9 ± 17.7 µM; on rP2 × 4R (ATP EC50, after 300 µM NEM + vehicle treatment, control = ATP curve after treatment), 23.8 ± 7 µM. In addition, the EC50 on rP2 × 4R (ATP EC50, control of the DTNB + Zn(II) experiment, Figure S3) is 50.3 ± 16 µM; at rP2 × 4R (ATP EC50, vehicle-treated oocytes (Barth's buffer), Figure 1A, without Zn(II)) it was 35.3 ± 6.6 µM; on rP2 × 4R C132A mutant (+10 µM Zn(II)), 19.9 ± 13.4 µM; at rP2 × 4R C132A mutant (control), 10.2 ± 3.8 µM. The Imax in test [1] (control) is reported as 3.2 ± 0.7 µA; at rP2 × 4R C149A mutant (C149A, +10 µM Zn(II)) it was 10.7 ± 3.5 µA; on rP2 × 4R (after 300 µM NEM + 10 µM Zn(II) treatment, ATP curve in presence of 10 µM Zn(II)), 9.3 ± 2.2 µA.
For the compound `[Cl-].[Cl-].[Zn+2]` [Zn(II), zinc chloride (ZnCl2)], the “fold ATP EC50 reduction by Zn(II)” value in test [1] (10 µM Zn(II)) was 5.5 fold. Further, the “fold ATP EC50 decrease by Zn(II)” value on rP2 × 4R C149A mutant (C149A, 10 µM Zn(II)) is recorded as 1.73 fold. In addition, the “fold reduction in ATP EC50 by Zn(II)” value in test [2] (10 µM Zn(II)) worked out at 3.41 fold. Moreover, the “fold decrease in ATP EC50 by Zn(II)” value in test [3] (C126A/C149A, 10 µM Zn(II)) was 2.26 fold. Further, the “fold reduction of ATP EC50 by Zn(II)” value at rP2 × 4R (10 µM Zn(II), vehicle-treated oocytes) is 3.82 fold. Moreover, the “fold leftward shift of ATP EC50 by Zn(II)” value at rP2 × 4R (WT, matched paired control oocytes, 10 µM Zn(II)) is on record as 3.45 fold. Also, the “Zn(II) modulation of the mutant” value on rP2 × 4R C132A mutant (C132A, 10 µM Zn(II)) was “resistant to Zn(II) modulation”.

One may read the EC50 as the concentration giving half of the maximal effect.

The values are drawn from paper PMC7555825, “New Insights of the Zn(II)-Induced P2 × 4R Positive Allosteric Modulation: Role of Head Receptor Domain SS2/SS3, E160 and D170” (International Journal of Molecular Sciences, 2020).
